The values below come from patent publication US20200121605A1, “METHODS AND COMPOSITIONS FOR LOCALIZED INTRADUCTAL DRUG DELIVERY TO THE BREAST AND REGIONAL LYMPH NODES” (South Dakota Board of Regents, priority 2018, published 2020).

On the set-up of data set [1]: species or system rats. As to conditions: rat, in vivo. The protocol:
(§1) For In vivo studies, the levels of 4-hydroxytamoxifen and endoxifen were measured using LC-MS.
(§2) The tissues were mixed with TRIS HCl buffer (1 ml/mg) and homogenized at 6000 rpm for 3 minutes under ice. For lymph nodes, sonication (45% amplitude in pulse mode 1 sec on and 1 sec off for 2 minutes under ice) was used to homogenize the tissue. From this, 200 μl of tissue homogenate was mixed with 800 μl of acetonitrile to precipitate proteins (1:4 v/v). This was then vortexed for 1-2 minutes followed by sonication for 3 minutes. The plasma was then centrifuged at 10,000 rpm at 4° C. for 10 minutes. The supernatant was collected and evaporated to dryness under gentle stream of Argon. The residue was then reconstituted with 100 μl of Ammonium Formate, pH 3.5: Acetonitrile (7:3 v/v). This was vortexed for 1 minute followed by sonication for 2 minutes. The reconstituted mixture was centrifuged at 10,000 rpm for 10 minutes at 4° C. The supernatant was collected and 15 μl was injected into LC-MS to determine drug levels.

The conditions of data set [2]: rat, in vivo. As for the experimental part:
as §1, §2

Data set [3] in a line: Breast (mammary gland) concentration of tamoxifen and 4-hydroxytamoxifen after intraductal injection. In kind it is in vivo. The protocol: (§3) For In vivo studies, the levels of Tamoxifen and two major metabolites 4-hydroxytamoxifen (4HT) and endoxifen (EDX) were measured using LC-MS. (Liquid chromatography-Mass spectroscopy)
(§4) The mammary gland and all the other vital organs (liver, spleen, kidney, lungs, heart, and uterus) were weighed and washed with PBS to remove blood. The tissues were mixed with TRIS HCl buffer (1 ml/mg) and homogenized at 6000 rpm for 3 minutes under ice. For lymph nodes, sonication (45% amplitude in pulse mode 1 sec on and 1 sec off for 2 minutes under ice) was used for homogenization. From this, 200 μl of tissue homogenate was mixed with 800 μl of acetonitrile (1:4 v/v) for protein precipitation. This was vortexed for 1-2 minutes followed by sonication for 3 minutes. The homogenate was centrifuged at 10,000 rpm at 4° C. for 10 minutes. The supernatant was collected and evaporated to dryness under gentle stream of Argon. The residue was reconstituted with 100 μl of ammonium formate (pH 3.5): acetonitrile (7:3 v/v). This was vortexed for 1 minute followed by sonication for 2 minutes. The reconstituted mixture was centrifuged at 10,000 rpm for 10 minutes at 4° C. The supernatant was gently removed and 15 μl was injected into LC-MS for quantification.

Data set [4] can be described thus: Plasma levels of tamoxifen and metabolites after intraductal injection of tamoxifen formulations (LC-MS). The class given is in vivo. The protocol: as §3
For determining drug levels in plasma, 100 μl of plasma was mixed with 400 μl of acetonitrile to precipitate proteins (1:4 v/v). This was then vortexed for 1-2 minutes followed by sonication for 3 minutes. The plasma was then centrifuged at 10,000 rpm at 4° C. for 10 minutes. The supernatant was collected and evaporated to dryness under gentle stream of Argon. The residue was then reconstituted with 100 μl of ammonium formate, (pH 3.5): acetonitrile (7:3 v/v). This was vortexed for 1 minute followed by sonication for 2 minutes. The reconstituted mixture was centrifuged at 10,000 rpm for 10 minutes at 4° C. The supernatant was collected and 15 μl was injected into LC-MS to determine drug levels.

A short description of data set [5]: Organ distribution of tamoxifen PLGA formulations. In kind it is in vivo. The note with it: end of the treatment. As for the experimental part:
as §3, §4

Data set [6] can be described thus: Intraductal retention of Cy5.5 labelled PLGA formulations, whole body imaging. In kind it is in vivo, Female SD rats. The protocol:
Female SD rats were anesthetized using isoflurane and the hair around the nipple region was removed using hair removing cream. The keratin plug from the inguinal mammary gland (5th or 6th nipple from the head) was removed gently holding the nipple using tweezers and wiping with 70% alcohol.
For microspheres and nanoparticles, around 0.5 to 1.5 mg particles was dispersed in PBS containing 0.5% w/v Tween 80 and vortexed for 30-60 seconds. For In situ implants, 50-100 μl of gel containing an equivalent amount of Cy5.5 was used. After dilation of the nipple orifice, 50-100 μl of the formulation was injected intraductally into the inguinal mammary glands using 27-31 G needle under a surgical microscope.
The animals were imaged using Bruker in Vivo Xtreme II optical imaging system at predetermined time points (0 to 96 hours) to study the distribution of the carrier system in the breast. Following instrument settings were used: Excitation/Emission: 690/750 nm; Bin: 1×1 pixels; Exposure time: 20 seconds, f-stop: 1.2, FOV: 19. Fluorescence intensities were plotted against time by choosing a constant ROI around the injected mammary gland and subtracting the fluorescence intensity from the contralateral mammary gland.

Data set [7] in a line: Imaging of regional (axillary) lymph nodes after intraductal injection. The class given is in vivo, female Sprague Dawley rats. The protocol: Intraductal injection was performed following the method described in the previous section. Regional lymph nodes (Axillary lymph node) were identified and dissected at 2 hours, 24 hours and 48 hours after intraductal injection. The lymph nodes were then imaged using whole body animal imaging system to determine the localization of formulation in the lymph nodes.

Where [8] appears, read: breast (mammary gland), tamoxifen in breast.
[9] abbreviates: intraductal retention, Cy 5.5 fluorescence intensity profile, 0 to 96 hours.

The term AUC denotes the area under the concentration-time curve, a measure of exposure. In general, Cmax refers to the peak of the concentration-time curve. By MRT is commonly meant the average time that molecules of a dose stay in the body. The term Tmax denotes the time at which the peak concentration occurs. By half-life is commonly meant the time in which the quantity being followed falls by half.

Take “4-hydroxytamoxifen [Free 4-hydroxy tamoxifen]”: in data set [1], the “4 hydroxy tamoxifen in the tissues” value is “undetectable” and the “systemic exposure of endoxifen in all the tissues” value was “higher systemic exposure”. The “retention in the mammary gland, in words” value in data set [2] is reported as “very low levels”.
For `CC/C(=C(\c1ccccc1)c1ccc(OCCN(C)C)cc1)c1ccccc1` [Free TMX, tamoxifen], in data set [3], the “not retained in the mammary glands after” value came out at 3 days and the “retained in the mammary gland for only” value is 72 h. Further, in data set [3] (setting [8]), the AUC amounted to 125000 ± 3690 ng·h/mL, the highest level (Cmax) was 4370 ± 67.7 ng/mL, the MRT is 26.5 ± 4.3 h and the time to peak (Tmax) came out at 12 h. The molecule also showed a half-life in data set [3] (setting [8]) of 14.87 ± 0.04 h. Further, in data set [3] (tamoxifen in breast), the ke turned out to be 0.020 ± 0.0005. Also, in data set [4], the “duration of detectable plasma tamoxifen” value came out at 3 days. Further, in data set [4] (Tamoxifen in plasma), the exposure (AUC) turned out to be 116 ± 43.3 ng·h/mL, the AUMC amounted to 4546.37 ± 466.103 ng · hr^2/ml, the Cmax worked out at 8.9 ± 1.55 ng/mL and the MRT stood at 47.7 ± 3.15 h. Further, in data set [4] (Tamoxifen in plasma), the Tmax came out at 0.3 h, the half-life was 19.5 ± 4.24 h and the ke was 0.015 ± 0.002 h⁻¹. Also, the “uterine exposure of tamoxifen and metabolites” value in data set [5] was “resulted in uterine exposure”.
In the case of Cy 5.5, the “no fluorescence signals recorded after” value in data set [6] (breast ducts, non-invasive imaging) stood at 4 h. Further, in data set [6] (setting [9]), the k came out at 0.40 ± 0.03 h⁻¹ and the “t1/2 (retention half-life)” value turned out to be 1.70 ± 0.16 h. The “localization (fluorescence) in the axillary lymph nodes up to” value in data set [7] was no more than 1 h.
